Patent publication US11059810B2, “Pharmaceutically acceptable salt as renal outer medullary potassium channel inhibitor” (Jiangsu Hengrui Medicine Co., Ltd., priority 2016, dated 2021)

Key:
[1] = Stability of crystal forms spread flat in air under lighting, heating and high humidity (purity by HPLC); format: physicochemical
Method: The sample of crystal form I of the compound of formula (I) prepared in Example 2 and the sample of crystal form II prepared in Example 3 were spread flat in the air respectively to test the stability under conditions of lighting (4500 Lux), heating (40° C., 60° C.), and high humidity (RH 75%, RH 90%). Samplings were carried out on Day 5 and Day 10.

[2] = Special stability study of crystal form I (grinding, heating, tableting; XRPD/DSC); format: physicochemical
From the text: Crystal form I of the compound of formula (I) prepared according to the method of Example 2 was ground, heated and tableted.

[3] = Pharmacokinetics assay in SD rats after intragastric administration (plasma LC/MS/MS); format: in vivo; conditions: po 5.0 mg/kg; for CL/F: read-out: Cl/F—obs (clearance)
Method: SD rats were used as test animals. The drug concentration in plasma at different time points was determined by LC/MS/MS method after intragastrical administration of the crystal form 2 of the malate of the present invention and free form. The pharmacokinetic behavior and property of the crystal form 2 of the malate of the present invention and free form were studied and evaluated in SD rats.
Samples: crystal form 2 of the malate of the present invention and free form (the product of Example 1), prepared according to the methods of Examples 14 and 1.
Test animals: 8 healthy SD rats, half male and half female, were divided in two groups, and purchased from SINO-BRITSH SIPPR/BK LAB. ANIMAL LTD., CO, with certificate No.: SOCK (Shanghai) 2008-0016.
Preparation of the test compounds: the test compounds were added to 0.5% CMC-Na to prepare 0.5 mg/mL homogeneous suspensions for oral administration by ultrasound.
Administration: after an overnight fasting, 8 healthy SD rats, half male and half female, were administered the test compounds intragastrically at an administration volume of 10 mL/kg.
After an overnight fasting, 8 healthy SD rats, half male and half female, were administered the test compounds intragastrically. Blood samples (0.1 mL) were taken by jugular vein puncture before administration and at 0.5, 1, 2, 4, 6, 8, 12, and 24 hours after administration, and heparin sodium was used as an anticoagulant. The blood samples were centrifuged for 10 minutes at 3,500 rpm to separate the blood plasma, which was stored at −20° C. The content of the test compound in the plasma of SD rats after intragastric administration was determined by LC/MS/MS method.

[4] = Salt formation study (solubility, hygroscopicity); format: physicochemical; conditions: in words
From the text: In a preferred embodiment, the salt can be selected from the group consisting of tartrate, hydrochloride, sulfate, methanesulfonate, phosphate, citrate, maleate, fumarate, malate, benzenesulfonate, p-toluenesulfonate and hydrobromide, and most preferably L-tartrate and malate. The L-tartrate of (R)-5-cyano-N-(1-(2-hydroxy-2-(4-methyl-1-oxo-1,3-dihydroisobenzofuran-5-yl)ethyl) piperidin-4-yl)-4-methoxypicolinamide, i.e. the compound of the following formula (I), can be obtained by reacting (R)-5-cyano-N-(1-(2-hydroxy-2-(4-methyl-1-oxo-1,3-dihydroisobenzofuran-5-yl)ethyl) piperidin-4-yl)-4-methoxypicolinamide with L-tartaric acid. The hydrochloride, sulfate, methanesulfonate, phosphate, citrate, maleate, fumarate, malate, benzenesulfonate, p-toluenesulfonate and hydrobromide of (R)-5-cyano-N-(1-(2-hydroxy-2-(4-methyl-1-oxo-1,3-dihydroisobenzofuran-5-yl)ethyl) piperidin-4-yl)-4-methoxypicolinamide can be prepared by using a similar method. […]

[5] = both sexes, rat, plasma, 0.5% CMC-Na suspension

purity as detected by HPLC ([1]; 40° C., day 0) [%] | purity as detected by HPLC ([1]; 40° C., day 5) [%] | purity as detected by HPLC ([1]; 40° C., day 10) [%] | purity as detected by HPLC ([1]; 60° C., day 0) [%] | purity as detected by HPLC ([1]; 60° C., day 5) [%] | purity as detected by HPLC ([1]; 60° C., day 10) [%] | purity as detected by HPLC ([1]; Lighting (4500 Lux), day 0) [%] | purity as detected by HPLC ([1]; Lighting (4500 Lux), day 5) [%] | purity as detected by HPLC ([1]; Lighting (4500 Lux), day 10) [%] | purity as detected by HPLC ([1]; RH 75%, day 0) [%] | purity as detected by HPLC ([1]; RH 75%, day 5) [%] | purity as detected by HPLC ([1]; RH 75%, day 10) [%] | purity as detected by HPLC ([1]; RH 90%, day 0) [%] | purity as detected by HPLC ([1]; RH 90%, day 5) [%] | purity as detected by HPLC ([1]; RH 90%, day 10) [%] | CL/F [3, 5] [mL/min/kg] | AUClast (area under curve 0→t) ([3]; 0.5% CMC-Na suspension) [ng·h/mL] | Compound | also measured
99.67 | 99.52 | 99.45 | 99.67 | 99.55 | 99.39 | 99.67 | 99.54 | 99.34 | 99.67 | 99.53 | 99.39 | 99.67 | 99.59 | 99.43 | – | – | COc1cc(C(=O)NC2CCN(C[C@H](O)c3ccc4c(c3C)COC4=O)CC2)ncc1C#N.O=C(O)C(O)C(O)C(=O)O [Crystal form I, L-tartrate of (R)-5-cyano-N-(1-(2-hydroxy-2-(4-methyl-1-oxo-1,3-dihydroisobenzofuran-5-yl)ethyl)piperidin-4-yl)-4-methoxypicolinamide] | stability under conditions of lighting, high temperature and high humidity ([1]; in words): stable; stability compared with crystal form II ([1]; spread flat in air, lighting, high temperature and high humidity, in words): significantly better; DSC peak after treatment ([2]; Grinding treatment for 10 minutes in a mortar under nitrogen): 214.17 °C; DSC peak after treatment ([2]; Heating treatment for 3 hours at 80° C.): 214.40 °C; DSC peak after treatment ([2]; Tableting treatment): 214.44 °C; stability of the crystal form ([2]; grinding, heating / pressure (tableting), in words): stable
– | – | – | – | – | – | – | – | – | – | – | – | – | – | – | 6.87 | 13365 | COc1cc(C(=O)NC2CCN(C[C@H](O)c3ccc4c(c3C)COC4=O)CC2)ncc1C#N.O=C(O)CC(O)C(=O)O [Crystal form 2 of the malate, (R)-5-cyano-N-(1-(2-hydroxy-2-(4-methyl-1-oxo-1,3-dihydroisobenzofuran-5-yl)ethyl)piperidin-4-yl)-4-methoxypicolinamide] | half-life ([3]; both sexes, rat, plasma, 0.5% CMC-Na suspension, read-out: T1/2 (half-life) (converted)): 5.24 h; Vd/F ([3]; both sexes, rat, plasma, 0.5% CMC-Na suspension, read-out: Vz/F—obs (apparent distribution volume)): 3.09 L/kg; clearance compared to the free form ([3]; in words): lower; exposure dose compared to the free form ([3]; in words): higher; half-life compared to the free form ([3]; in words): longer
– | – | – | – | – | – | – | – | – | – | – | – | – | – | – | – | – | COc1cc(C(=O)NC2CCN(C[C@H](O)c3ccc4c(c3C)COC4=O)CC2)ncc1C#N [sulfate, (R)-5-cyano-N-(1-(2-hydroxy-2-(4-methyl-1-oxo-1,3-dihydroisobenzofuran-5-yl)ethyl)piperidin-4-yl)-4-methoxypicolinamide] | hygroscopicity ([4]; salt formation study): obviously hygroscopic
– | – | – | – | – | – | – | – | – | – | – | – | – | – | – | 9.82 | 9283 | COc1cc(C(=O)NC2CCN(C[C@H](O)c3ccc4c(c3C)COC4=O)CC2)ncc1C#N [Free form, (R)-5-cyano-N-(1-(2-hydroxy-2-(4-methyl-1-oxo-1,3-dihydroisobenzofuran-5-yl)ethyl)piperidin-4-yl)-4-methoxypicolinamide] | solubility [4]: low
99.47 | 99.38 | 99.15 | 99.47 | 99.22 | 98.87 | 99.47 | 99.23 | 98.62 | 99.47 | 99.30 | 99.10 | 99.47 | 99.30 | 99.10 | – | – | COc1cc(C(=O)NC2CCN(C[C@H](O)c3ccc4c(c3C)COC4=O)CC2)ncc1C#N.O=C(O)C(O)C(O)C(=O)O [Crystal form II, L-tartrate of (R)-5-cyano-N-(1-(2-hydroxy-2-(4-methyl-1-oxo-1,3-dihydroisobenzofuran-5-yl)ethyl)piperidin-4-yl)-4-methoxypicolinamide] | –
